Experimental findings from ChEMBL document CHEMBL1201862, “PubChem BioAssay data set” (2004) are described below.

The source made the active and inactive calls.

Experiment [1] can be described thus: THP-1 cell cytotoxicity, dose response, cytotoxicity control for non-replicating M. tuberculosis project (AID 489025). The class given is functional.
A short description of experiment [2]: HepG2 cell cytotoxicity, dose response, cytotoxicity control for non-replicating M. tuberculosis project (AID 489018). To be noted: Mycobacterium tuberculosis. The class given is functional.
Experiment [3] is described as follows: Vero E6 cell cytotoxicity, dose response, cytotoxicity control for non-replicating M. tuberculosis project, secondary assay (AID 492998). The class given is functional, VeroE6. To be noted: Vero C1008.
Experiment [4] addresses T1, Microphthalmia-associated transcription factor (Homo sapiens, UniProt O75030).
T1 sequence (O75030 whole entry): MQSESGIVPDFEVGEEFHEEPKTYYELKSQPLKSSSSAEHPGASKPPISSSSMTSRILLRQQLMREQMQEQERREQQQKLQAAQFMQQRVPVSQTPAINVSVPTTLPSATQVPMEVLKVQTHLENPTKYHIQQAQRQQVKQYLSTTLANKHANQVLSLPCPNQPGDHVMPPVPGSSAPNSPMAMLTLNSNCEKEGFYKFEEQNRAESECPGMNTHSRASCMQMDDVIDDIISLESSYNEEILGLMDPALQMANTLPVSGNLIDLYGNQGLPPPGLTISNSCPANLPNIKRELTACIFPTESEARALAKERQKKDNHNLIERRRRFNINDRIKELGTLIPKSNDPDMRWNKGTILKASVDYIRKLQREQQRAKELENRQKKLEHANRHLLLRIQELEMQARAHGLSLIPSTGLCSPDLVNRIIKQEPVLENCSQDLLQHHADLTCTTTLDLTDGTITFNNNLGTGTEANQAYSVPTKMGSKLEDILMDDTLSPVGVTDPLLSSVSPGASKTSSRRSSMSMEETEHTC
As to the kind of experiment: TRPM1 promoter luciferase signal decrease, dose response, MITF inhibitor project, cell-based, SK-MEL-5, cherry-picked, set 3 (AID 493073).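 Note: SK-MEL-5 melanoma cells with luciferase driven by the MITF target TRPM1 promoter.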 The class given is functional.

Another experiment can be described thus: cells. The class given is functional.
The target in experiment [5] is Glycogen synthase kinase-3 alpha (Homo sapiens, UniProt P49840). Nature of the experiment: Inhibition of Human GSK-3 alpha Activity Measured in Biochemical System Using Microfluidics - 2063-06_Inhibitor_Dose_DryPowder_Activity. [Related pubchem assays (depositor defined):AID2709].
Experiment [6] has as its target Glycogen synthase kinase-3 beta (Homo sapiens, UniProt P49841). As to the kind of experiment: Inhibition of Human GSK-3 beta Activity Measured in Biochemical System Using Microfluidics - 2063-05_Inhibitor_Dose_DryPowder_Activity. [Related pubchem assays (depositor defined):AID2709].
Experiment [7] addresses Beta-2 adrenergic receptor (Homo sapiens, UniProt P07550). As to the kind of experiment: beta2AR agonists driving receptor internalization, dose response, cell-based, FAP fluorogen, flow cytometry, cherry pick 1 (AID 588763). The class given is functional. Background: In flow cytometry, cells or beads pass a laser one at a time.
Another experiment relates to HEK293. Nature of the experiment: cells. The class given is functional, cell-based. To be noted: Homo sapiens.
For experiment [8], the target named is Nuclear receptor subfamily 0 group B member 1 (Homo sapiens, UniProt P51843). Nature of the experiment: Luminescence-based cell-based high throughput dose response assay for inhibitors of the orphan nuclear receptor subfamily 0, group B, member 1 (DAX1; NR0B1). [Related pubchem assays (depositor defined):AID504766, AID504790]. The class given is functional.

Experiment [9] concerns BJ. As to the kind of experiment: cytotoxicity toward BJ-TERT fibroblasts, dose response, cell-based, RAS-independent, luminescence (AID 1933). The class given is functional. To be noted: Homo sapiens.
The subject of experiment [10] is BJ. Nature of the experiment: cells. The class given is functional, cell-based. To be noted: Homo sapiens.
For experiment [11], the system named is BJ. As to the kind of experiment: cytotoxicity toward BJ-TERT-LT-ST fibroblasts, dose response, cell-based, RAS-independent, luminescence (AID 1935).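 Note: BJ fibroblasts immortalized with TERT plus LT and ST oncogenes.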 The class given is functional. To be noted: Homo sapiens.
A short description of experiment [12]: cytotoxicity toward DRD oncogenic fibroblasts, dose response, cell-based, non-viral oncogenic, luminescence (AID 1934). The class given is functional. To be noted: Homo sapiens.
For experiment [13], the target named is T2, Replicative DNA helicase DnaB (Mycobacterium tuberculosis, UniProt P9WMR3).
T2 sequence (P9WMR3 whole entry): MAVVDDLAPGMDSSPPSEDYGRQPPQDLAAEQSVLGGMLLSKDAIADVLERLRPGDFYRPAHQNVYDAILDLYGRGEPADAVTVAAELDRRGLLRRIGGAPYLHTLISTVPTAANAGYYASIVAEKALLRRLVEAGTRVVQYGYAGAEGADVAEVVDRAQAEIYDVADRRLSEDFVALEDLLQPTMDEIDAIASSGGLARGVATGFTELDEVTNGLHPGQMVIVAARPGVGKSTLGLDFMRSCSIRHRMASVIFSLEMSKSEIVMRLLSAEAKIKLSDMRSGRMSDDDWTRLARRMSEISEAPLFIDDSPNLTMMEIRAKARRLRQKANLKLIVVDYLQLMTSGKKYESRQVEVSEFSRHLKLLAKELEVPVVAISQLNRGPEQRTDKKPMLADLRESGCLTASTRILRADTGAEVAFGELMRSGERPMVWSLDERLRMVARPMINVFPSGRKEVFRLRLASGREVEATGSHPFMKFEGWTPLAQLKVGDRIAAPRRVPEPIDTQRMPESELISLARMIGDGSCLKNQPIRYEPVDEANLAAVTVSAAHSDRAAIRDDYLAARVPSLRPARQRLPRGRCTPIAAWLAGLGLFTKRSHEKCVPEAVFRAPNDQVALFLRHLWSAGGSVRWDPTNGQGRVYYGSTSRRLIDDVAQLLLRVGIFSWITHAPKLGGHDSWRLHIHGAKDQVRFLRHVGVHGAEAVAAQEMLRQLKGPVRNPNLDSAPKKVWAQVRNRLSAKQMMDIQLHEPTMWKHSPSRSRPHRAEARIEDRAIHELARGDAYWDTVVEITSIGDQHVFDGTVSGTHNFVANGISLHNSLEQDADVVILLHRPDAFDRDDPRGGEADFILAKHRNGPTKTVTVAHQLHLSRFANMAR
As to the kind of experiment: DnaB intein splicing inhibitors, dose response, biochemical, cell-free fluorescence (AID 449749). The class given is functional.

The target in the next experiment is T3, Protein RecA (Mycobacterium tuberculosis, UniProt P9WHJ3).
T3 sequence (P9WHJ3 whole entry): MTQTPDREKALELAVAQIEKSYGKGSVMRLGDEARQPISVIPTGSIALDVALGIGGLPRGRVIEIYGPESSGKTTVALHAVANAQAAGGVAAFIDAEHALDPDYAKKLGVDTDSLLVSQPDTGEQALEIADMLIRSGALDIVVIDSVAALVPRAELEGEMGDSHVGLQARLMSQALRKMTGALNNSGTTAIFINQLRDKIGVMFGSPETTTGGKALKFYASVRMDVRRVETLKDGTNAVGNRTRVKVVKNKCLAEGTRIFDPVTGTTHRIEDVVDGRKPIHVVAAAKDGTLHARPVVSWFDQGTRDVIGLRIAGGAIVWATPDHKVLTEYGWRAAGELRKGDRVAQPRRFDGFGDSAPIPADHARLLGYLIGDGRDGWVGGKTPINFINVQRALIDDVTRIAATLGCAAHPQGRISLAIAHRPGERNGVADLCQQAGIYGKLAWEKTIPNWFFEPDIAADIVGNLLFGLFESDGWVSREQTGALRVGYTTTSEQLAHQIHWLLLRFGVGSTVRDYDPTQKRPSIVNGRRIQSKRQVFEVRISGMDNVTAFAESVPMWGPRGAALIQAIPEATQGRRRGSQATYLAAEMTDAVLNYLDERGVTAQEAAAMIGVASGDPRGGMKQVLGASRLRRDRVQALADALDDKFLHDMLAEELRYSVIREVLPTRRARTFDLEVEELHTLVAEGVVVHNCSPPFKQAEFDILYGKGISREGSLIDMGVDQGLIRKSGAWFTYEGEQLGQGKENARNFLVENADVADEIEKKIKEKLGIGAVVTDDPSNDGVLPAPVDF
Nature of the experiment: Fluorescence Cell-Free Homogeneous Dose Retest to Identify Inhibitors of RecA-Intein Splicing Activity. [Related pubchem assays (depositor defined):AID2097, AID2223, AID489010, AID492950]. The class given is functional.

In experiment [14] the test system is A-375. As to the kind of experiment: MITF: Counter assay: A375 proliferation Measured in Cell-Based System Using Plate Reader - 2084-03_Inhibitor_Dose_DryPowder_Activity. [Related pubchem assays (depositor defined):AID488944]. The class given is functional. To be noted: Homo sapiens.
The test system of experiment [15] is A-375. Nature of the experiment: A375 melanoma cell viability reduction, dose response, counter-screen for MITF modulator project, cherry-pick samples, set 2 (AID 540335). The class given is functional, cell-based. To be noted: Homo sapiens. (In general: A counterscreen serves to expose hits that act by an unwanted route or on another target.)
Another experiment deals with Beta-galactosidase (Escherichia coli, UniProt Q8VNN2). Nature of the experiment: PubChem AID 485352. The class given is functional.
Experiment [16] concerns the target Type-1 angiotensin II receptor (Homo sapiens, UniProt P30556). As to the kind of experiment: AT1 receptor antagonists, dose response, selectivity assay for APJ receptor antagonist project, cell-based, uHTS hits (AID 463214).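 Note: antagonist potency against angiotensin II stimulated AT1 response.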 The class given is functional.
Experiment [17] is described as follows: inhibitors of HIV Env-driven cell fusion, dose response, cherry-pick (AID 652057). The class given is functional, cell-based.
A short description of experiment [18]: ZM109 Env clade C HIV-1 fusion inhibitors, dose response, HeLa effector, CEM target cells, luciferase, cherry-pick (AID 652058). The class given is functional, cell-based.
The nature of experiment [19]: off-target signal loss in HeLa-CEM21 co-culture – HeLa F-luc CTL cells, cherry-picked, counter-screen for HIV-1 Env fusion inhibitor project, dose response (AID 652040).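 Note: potency for signal decrease marking cytotoxic or nonspecific inhibition.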 The class given is functional, cell-based.
The nature of experiment [20]: inhibitors of clade B AD8 Env fusion, dose response, cell-based, cherry-pick (AID 652062).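 Note: luciferase signal from cell-cell fusion driven by HIV-1 clade B AD8 Env; potency is for inhibitors of fusion seen as a drop in luminescence.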 The class given is functional.

Chain of Beta-galactosidase (Q8VNN2 whole entry): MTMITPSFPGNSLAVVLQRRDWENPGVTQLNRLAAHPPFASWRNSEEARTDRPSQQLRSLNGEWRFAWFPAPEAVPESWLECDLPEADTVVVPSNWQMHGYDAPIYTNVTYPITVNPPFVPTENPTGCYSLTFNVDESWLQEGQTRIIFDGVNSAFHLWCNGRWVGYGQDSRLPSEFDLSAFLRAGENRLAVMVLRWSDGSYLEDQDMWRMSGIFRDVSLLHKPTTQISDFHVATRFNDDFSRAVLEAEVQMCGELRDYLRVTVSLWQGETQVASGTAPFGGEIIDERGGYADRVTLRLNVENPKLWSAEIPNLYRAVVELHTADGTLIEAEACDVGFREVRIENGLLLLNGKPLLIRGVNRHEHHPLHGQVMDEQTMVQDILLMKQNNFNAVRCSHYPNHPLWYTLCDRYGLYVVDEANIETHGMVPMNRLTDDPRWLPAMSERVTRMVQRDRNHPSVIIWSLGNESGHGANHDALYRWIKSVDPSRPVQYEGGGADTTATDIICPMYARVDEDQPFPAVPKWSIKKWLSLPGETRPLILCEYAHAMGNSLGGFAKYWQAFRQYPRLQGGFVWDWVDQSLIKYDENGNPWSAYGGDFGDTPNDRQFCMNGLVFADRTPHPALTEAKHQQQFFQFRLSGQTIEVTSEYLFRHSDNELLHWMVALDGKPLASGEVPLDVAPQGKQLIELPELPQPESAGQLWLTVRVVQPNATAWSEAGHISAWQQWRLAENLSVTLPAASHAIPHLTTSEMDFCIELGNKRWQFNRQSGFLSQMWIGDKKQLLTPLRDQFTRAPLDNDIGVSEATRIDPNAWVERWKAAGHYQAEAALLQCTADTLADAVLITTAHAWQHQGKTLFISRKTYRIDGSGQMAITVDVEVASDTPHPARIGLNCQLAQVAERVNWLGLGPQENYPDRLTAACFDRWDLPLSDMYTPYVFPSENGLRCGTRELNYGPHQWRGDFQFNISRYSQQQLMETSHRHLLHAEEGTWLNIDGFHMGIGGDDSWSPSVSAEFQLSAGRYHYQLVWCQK
Chain of Type-1 angiotensin II receptor (P30556 whole entry, the tested form may be a part): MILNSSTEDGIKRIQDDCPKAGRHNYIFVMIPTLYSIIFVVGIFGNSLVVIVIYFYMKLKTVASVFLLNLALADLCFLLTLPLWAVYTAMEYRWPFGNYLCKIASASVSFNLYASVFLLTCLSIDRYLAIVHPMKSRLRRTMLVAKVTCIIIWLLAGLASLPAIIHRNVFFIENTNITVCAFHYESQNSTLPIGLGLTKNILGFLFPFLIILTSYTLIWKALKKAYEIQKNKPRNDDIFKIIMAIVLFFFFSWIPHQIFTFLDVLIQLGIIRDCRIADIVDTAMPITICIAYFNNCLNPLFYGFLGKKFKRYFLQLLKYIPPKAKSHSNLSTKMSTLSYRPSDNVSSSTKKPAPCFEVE
Chain of Glycogen synthase kinase-3 beta (P49841 whole entry): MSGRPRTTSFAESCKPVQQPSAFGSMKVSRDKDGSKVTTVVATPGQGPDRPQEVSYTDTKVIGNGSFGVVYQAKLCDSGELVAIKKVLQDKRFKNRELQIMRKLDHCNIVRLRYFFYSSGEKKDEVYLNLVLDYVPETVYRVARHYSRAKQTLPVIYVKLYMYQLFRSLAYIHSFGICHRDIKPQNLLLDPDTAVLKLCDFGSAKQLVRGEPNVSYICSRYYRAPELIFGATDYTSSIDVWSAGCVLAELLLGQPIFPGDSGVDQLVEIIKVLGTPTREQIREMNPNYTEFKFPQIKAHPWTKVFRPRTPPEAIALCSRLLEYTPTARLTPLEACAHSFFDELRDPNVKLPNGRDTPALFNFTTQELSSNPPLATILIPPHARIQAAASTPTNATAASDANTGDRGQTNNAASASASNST
Chain of Glycogen synthase kinase-3 alpha (P49840 whole entry): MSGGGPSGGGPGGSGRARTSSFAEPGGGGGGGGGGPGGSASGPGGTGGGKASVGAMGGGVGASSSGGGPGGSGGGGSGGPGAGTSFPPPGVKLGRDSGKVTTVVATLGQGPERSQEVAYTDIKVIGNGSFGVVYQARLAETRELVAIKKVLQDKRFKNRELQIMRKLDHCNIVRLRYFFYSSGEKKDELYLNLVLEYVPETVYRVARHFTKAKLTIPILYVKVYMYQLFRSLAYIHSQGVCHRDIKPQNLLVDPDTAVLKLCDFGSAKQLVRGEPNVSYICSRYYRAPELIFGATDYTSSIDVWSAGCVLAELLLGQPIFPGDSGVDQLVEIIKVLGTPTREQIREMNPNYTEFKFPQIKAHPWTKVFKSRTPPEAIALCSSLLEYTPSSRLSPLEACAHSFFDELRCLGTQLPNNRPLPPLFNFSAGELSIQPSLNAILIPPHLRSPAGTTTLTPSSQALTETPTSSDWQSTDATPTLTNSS
Chain of Beta-2 adrenergic receptor (P07550 whole entry): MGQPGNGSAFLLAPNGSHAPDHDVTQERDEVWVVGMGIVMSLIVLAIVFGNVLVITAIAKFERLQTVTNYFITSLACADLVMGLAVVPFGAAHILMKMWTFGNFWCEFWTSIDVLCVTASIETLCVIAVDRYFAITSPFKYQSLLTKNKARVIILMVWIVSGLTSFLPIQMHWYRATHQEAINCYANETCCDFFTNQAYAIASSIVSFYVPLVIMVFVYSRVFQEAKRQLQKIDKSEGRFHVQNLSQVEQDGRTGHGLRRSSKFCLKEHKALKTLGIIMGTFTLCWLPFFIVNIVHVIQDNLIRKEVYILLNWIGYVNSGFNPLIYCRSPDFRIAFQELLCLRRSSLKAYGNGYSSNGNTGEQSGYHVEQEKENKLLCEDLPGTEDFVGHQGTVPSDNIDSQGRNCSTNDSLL
Chain of Nuclear receptor subfamily 0 group B member 1 (P51843 whole entry): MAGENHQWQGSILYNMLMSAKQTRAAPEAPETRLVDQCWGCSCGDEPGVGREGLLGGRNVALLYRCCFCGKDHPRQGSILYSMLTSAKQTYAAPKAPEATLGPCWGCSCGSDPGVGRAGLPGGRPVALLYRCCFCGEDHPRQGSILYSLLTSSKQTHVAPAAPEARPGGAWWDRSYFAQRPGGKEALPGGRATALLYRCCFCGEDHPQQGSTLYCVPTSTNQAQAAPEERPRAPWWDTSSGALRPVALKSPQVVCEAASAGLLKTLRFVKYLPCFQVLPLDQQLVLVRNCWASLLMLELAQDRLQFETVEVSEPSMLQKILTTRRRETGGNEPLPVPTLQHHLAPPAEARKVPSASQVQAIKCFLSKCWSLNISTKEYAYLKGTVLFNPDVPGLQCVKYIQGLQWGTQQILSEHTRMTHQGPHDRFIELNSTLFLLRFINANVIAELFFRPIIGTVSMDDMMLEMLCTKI

In general, CC50 refers to the concentration that lowers cell viability or growth by half. In general, AC50 refers to the concentration giving half of the maximal activity seen. The IC50 is the concentration that inhibits the measured activity by half. Turning to `O=C1Nc2cc(C(=O)NCCN3CCCCCC3)ccc2S/C1=C\c1ccccc1`, the figures for the CC50 in [1], in experiment [2] and in experiment [3] were 6.89 µM (active), 12.1 µM (active) and 12.5 µM (active), respectively. In addition, the half-maximal activity concentration (AC50) in [4] is 9.78 µM (active); in experiment [5], 63.7 µM (active); in [6], 2.29 µM (active). The IC50 in the experiment “cells” was 37.8 µM (active).

For orientation: EC50 means the concentration giving half of the maximal effect. `CN(CCOc1ccc(-c2ccn(S(=O)(=O)c3cccc4ccccc34)n2)cc1)c1ccccn1`: the concentration giving a half-maximal response (EC50) in experiment [7] was 2.53 µM (active).

For the compound `c1ccc(N2CCN(c3ccccc3)C2c2cccs2)cc1`, the IC50 (with HEK293; in [8]) was > 67.5 µM (inactive) each time.

For the compound `Cc1c(C#N)c(NC(=O)CCl)n(Cc2ccc(F)cc2)c1C`, the EC50 is 1.88 µM (inconclusive) in the experiment on BJ [9]; > 150 µM (inconclusive) in the experiment with BJ [10]; 16.7 µM (active) in the experiment with BJ [11]; 12.1 µM (active) in experiment [12]; 4.23 µM (active) on Protein RecA. The AC50 in experiment [4] was 7.16 µM (active); in experiment [13], 15.2 µM (active); in the experiment with A-375 [14], > 35 µM (active); with A-375 [15], > 35 µM (active).

Take `O=C(CNc1ccc(F)cc1)c1ccccc1`: at Beta-galactosidase, the EC50 was > 40 µM (inactive). In addition, the IC50 in [16] is 7.06 µM (active). For the same compound, the half-maximal activity concentration (AC50) is 1.54 µM (active) in experiment [17], 1.17 µM (active) in [18], 1.57 µM (active) in experiment [19] and 4.61 µM (active) in experiment [20].
